{"source": "patent US12428412B2", "about": "(DANA-FARBER CANCER INSTITUTE, INC., priority 2018, dated 2025)", "key": {"MM.1S cells [1]": {"tested_on": "MM.1S cells", "assay": "4-day growth inhibition assay (ATPlite / cell counting kit), MM.1S cells", "assay_type": "cell-based", "details": "0-10 μM", "procedure": "An aliquot of the ATP standard solution (ATPlite™ 1000 assay kit, PerkinElmer®, USA) was used to prepare a dilution series in water. A series of 100 μL of complete culture medium was pipetted without cells into the wells of the plate. To each well was added 50 μL of the mammalian cell lysis solution, and the plate was shaken for 5 minutes in an orbital shaker at 700 rpm. 10 μL of the ATP dilution series was added to the wells, and the plate was shaken for 5 minutes in an orbital shaker at 700 rpm. 50 μL of the substrate solution was added and the plate was shaken for 5 minutes in an orbital shaker at 700 rpm. The plate dark adapted the plate for 10 minutes prior to measuring the luminescence and then preparing a standard curve."}, "CBP [2]": {"biological_target": "T1, CBP (Homo sapiens, UniProt Q92793)", "T1 construct": "endogenous in cells; host or cells: Kelly neuroblastoma cells (incl. Ch2.2, LACZ and CRBN knockout lines)", "T1 sequence (Q92793 whole entry)": "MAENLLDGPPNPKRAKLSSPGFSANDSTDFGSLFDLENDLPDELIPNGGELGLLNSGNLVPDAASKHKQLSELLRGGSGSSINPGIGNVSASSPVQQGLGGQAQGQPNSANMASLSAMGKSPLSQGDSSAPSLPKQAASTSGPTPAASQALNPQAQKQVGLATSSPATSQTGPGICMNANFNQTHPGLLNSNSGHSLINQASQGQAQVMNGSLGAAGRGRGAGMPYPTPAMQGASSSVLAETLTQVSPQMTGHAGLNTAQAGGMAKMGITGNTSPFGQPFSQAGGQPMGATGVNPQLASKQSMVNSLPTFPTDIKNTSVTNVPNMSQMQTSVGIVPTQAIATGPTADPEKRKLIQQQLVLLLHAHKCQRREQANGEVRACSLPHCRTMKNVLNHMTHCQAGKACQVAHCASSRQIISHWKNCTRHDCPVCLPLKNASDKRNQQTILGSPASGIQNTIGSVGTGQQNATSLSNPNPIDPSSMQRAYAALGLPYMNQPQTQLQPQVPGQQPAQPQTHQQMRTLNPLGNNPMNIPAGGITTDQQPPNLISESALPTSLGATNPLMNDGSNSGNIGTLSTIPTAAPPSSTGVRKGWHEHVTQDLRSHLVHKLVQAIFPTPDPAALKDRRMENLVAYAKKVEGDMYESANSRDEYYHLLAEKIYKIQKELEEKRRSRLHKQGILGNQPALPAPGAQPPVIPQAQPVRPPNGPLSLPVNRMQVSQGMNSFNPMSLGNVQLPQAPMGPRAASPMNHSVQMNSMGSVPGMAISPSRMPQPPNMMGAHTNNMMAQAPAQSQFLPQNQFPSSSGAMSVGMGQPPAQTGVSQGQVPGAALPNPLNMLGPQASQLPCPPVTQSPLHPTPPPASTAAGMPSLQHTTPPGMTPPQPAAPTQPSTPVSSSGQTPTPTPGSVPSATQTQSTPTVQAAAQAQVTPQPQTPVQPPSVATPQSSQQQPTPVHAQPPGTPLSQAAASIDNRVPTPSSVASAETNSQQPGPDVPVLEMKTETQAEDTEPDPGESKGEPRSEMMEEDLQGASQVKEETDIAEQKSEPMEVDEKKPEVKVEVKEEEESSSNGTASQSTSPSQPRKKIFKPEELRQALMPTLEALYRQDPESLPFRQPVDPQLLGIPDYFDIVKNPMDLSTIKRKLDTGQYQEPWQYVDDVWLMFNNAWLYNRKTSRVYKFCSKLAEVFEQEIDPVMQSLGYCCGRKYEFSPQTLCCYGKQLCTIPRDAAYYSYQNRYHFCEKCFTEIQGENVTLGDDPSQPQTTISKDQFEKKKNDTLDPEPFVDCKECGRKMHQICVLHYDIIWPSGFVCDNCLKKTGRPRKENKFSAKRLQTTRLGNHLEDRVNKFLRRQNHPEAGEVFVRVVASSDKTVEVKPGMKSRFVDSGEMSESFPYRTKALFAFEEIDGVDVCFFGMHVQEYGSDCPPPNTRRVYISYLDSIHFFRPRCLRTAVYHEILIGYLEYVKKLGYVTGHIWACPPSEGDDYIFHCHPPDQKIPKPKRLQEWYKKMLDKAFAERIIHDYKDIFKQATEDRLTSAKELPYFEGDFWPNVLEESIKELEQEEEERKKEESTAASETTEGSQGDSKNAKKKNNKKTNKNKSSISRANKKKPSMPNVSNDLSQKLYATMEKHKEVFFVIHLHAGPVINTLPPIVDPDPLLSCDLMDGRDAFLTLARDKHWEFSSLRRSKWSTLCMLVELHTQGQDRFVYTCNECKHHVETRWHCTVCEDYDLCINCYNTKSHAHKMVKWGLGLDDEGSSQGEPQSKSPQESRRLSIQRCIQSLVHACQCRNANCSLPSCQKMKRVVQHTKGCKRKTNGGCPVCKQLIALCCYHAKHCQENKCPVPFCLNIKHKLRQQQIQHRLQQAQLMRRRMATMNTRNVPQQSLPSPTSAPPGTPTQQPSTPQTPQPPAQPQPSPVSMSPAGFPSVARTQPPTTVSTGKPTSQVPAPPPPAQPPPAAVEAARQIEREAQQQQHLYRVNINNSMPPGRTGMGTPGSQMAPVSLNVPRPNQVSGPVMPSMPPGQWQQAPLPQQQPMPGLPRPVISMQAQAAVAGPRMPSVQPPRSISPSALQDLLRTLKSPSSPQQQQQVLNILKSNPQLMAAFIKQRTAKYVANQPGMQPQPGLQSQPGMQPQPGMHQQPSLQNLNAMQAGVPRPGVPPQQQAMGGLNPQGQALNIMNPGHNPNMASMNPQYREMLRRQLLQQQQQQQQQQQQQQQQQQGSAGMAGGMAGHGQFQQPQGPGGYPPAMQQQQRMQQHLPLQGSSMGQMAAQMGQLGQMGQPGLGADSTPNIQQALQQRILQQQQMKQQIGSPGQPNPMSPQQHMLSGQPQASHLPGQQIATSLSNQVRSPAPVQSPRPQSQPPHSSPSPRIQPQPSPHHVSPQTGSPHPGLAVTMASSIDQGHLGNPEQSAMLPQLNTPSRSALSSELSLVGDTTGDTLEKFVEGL", "assay": "Immunoblot in CRBN knockout Kelly cell lines, CBP", "assay_type": "cell-based", "details": "CRBN-1 and CRBN-3 Kelly lines, 500 nM", "procedure": "(§1) CPD 1 was tested in CRBN knockout (k/o) Kelly cell lines. The experimental protocol is the same as in Example 24."}, "MM.1S cells [3]": {"tested_on": "MM.1S cells", "assay": "6-day MTT assay, MM.1S cells", "assay_type": "cell-based", "details": "0-10 μM", "procedure": "(§2) Media from cell cultures was discarded. For adherent cells, the media was carefully aspirated. For suspension cells, the 96 well plate at 1,000×g, 4° C., was spun for 5 minutes in a microplate-compatible centrifuge and the media was carefully aspirated. The volume of existing media has to be the same for each sample. Fifty (50) μL of serum-free media and 50 μL of MTT solution were added into each well. The plate was incubated at 37° C. for 3 hours.\n(§3) After incubation, 150 μL of MTT solvent were added into each well. The plate was wrapped in foil and shaken on an orbital shaker for 15 minutes. Absorbance was read at OD=590 nm. Reading was performed within 1 hour."}, "CRBN k/o cell lines": {"tested_on": "CRBN k/o cell lines", "assay": "Cell viability in CRBN knockout Kelly cell lines", "assay_type": "cell-based", "procedure": "as §1"}, "[4]": {"assay": "In vivo study blood analysis", "details": "mice, after 14 days", "excerpt": "Blood samples were taken from mice treated daily with 40 mpk intraperitoneal injection (IP) after 14 days."}, "NB zebra fish model": {"tested_on": "NB zebra fish model", "assay": "NB zebra fish model", "assay_type": "in vivo", "procedure": "Maximum tolerance dose (MTD) of each candidate was determined in zebrafish embryos. 3-day-old zebrafish embryos were exposed to different drug concentrations and monitored for adverse health effects. […] Experiments were first carried out with compound CPD 1 as a guide in the further design of MTD assessment of lead EP300 degraders (FIG. 6B). The MTD of the degrader is also determined in mice in the similar manor. Briefly, mice were dosed with test compounds and blood and plasma is isolated at specific intervals post-administration (0.083, 0.25, 0.5, 1, 2, 4, 8, 12, and 24 h) and quantified for the presence of test article by LC/MS/MS (n=5 mice/compound). In vivo mouse PK experiments were used to determine these parameters and inform iterative rounds of medicinal chemistry for optimization of EP300 degraders (FIG. 6A). As degraders have a relatively large molecular weight, the proper formulation is investigated to increase the solubility and stability of the degraders for in vivo study. Together, these parameters, including the established MTD, are used to guide the in vivo study design, such as administration method, dosing, and schedule for the following experiment. The information obtained was also used to guide the degrader optimization conducted in Example 36."}, "EP300": {"biological_target": "T2, EP300 (Mus musculus, UniProt B2RWS6)", "T2 construct": "from tissue; host or cells: mouse liver (CD1 mice)", "T2 sequence (B2RWS6 whole entry)": "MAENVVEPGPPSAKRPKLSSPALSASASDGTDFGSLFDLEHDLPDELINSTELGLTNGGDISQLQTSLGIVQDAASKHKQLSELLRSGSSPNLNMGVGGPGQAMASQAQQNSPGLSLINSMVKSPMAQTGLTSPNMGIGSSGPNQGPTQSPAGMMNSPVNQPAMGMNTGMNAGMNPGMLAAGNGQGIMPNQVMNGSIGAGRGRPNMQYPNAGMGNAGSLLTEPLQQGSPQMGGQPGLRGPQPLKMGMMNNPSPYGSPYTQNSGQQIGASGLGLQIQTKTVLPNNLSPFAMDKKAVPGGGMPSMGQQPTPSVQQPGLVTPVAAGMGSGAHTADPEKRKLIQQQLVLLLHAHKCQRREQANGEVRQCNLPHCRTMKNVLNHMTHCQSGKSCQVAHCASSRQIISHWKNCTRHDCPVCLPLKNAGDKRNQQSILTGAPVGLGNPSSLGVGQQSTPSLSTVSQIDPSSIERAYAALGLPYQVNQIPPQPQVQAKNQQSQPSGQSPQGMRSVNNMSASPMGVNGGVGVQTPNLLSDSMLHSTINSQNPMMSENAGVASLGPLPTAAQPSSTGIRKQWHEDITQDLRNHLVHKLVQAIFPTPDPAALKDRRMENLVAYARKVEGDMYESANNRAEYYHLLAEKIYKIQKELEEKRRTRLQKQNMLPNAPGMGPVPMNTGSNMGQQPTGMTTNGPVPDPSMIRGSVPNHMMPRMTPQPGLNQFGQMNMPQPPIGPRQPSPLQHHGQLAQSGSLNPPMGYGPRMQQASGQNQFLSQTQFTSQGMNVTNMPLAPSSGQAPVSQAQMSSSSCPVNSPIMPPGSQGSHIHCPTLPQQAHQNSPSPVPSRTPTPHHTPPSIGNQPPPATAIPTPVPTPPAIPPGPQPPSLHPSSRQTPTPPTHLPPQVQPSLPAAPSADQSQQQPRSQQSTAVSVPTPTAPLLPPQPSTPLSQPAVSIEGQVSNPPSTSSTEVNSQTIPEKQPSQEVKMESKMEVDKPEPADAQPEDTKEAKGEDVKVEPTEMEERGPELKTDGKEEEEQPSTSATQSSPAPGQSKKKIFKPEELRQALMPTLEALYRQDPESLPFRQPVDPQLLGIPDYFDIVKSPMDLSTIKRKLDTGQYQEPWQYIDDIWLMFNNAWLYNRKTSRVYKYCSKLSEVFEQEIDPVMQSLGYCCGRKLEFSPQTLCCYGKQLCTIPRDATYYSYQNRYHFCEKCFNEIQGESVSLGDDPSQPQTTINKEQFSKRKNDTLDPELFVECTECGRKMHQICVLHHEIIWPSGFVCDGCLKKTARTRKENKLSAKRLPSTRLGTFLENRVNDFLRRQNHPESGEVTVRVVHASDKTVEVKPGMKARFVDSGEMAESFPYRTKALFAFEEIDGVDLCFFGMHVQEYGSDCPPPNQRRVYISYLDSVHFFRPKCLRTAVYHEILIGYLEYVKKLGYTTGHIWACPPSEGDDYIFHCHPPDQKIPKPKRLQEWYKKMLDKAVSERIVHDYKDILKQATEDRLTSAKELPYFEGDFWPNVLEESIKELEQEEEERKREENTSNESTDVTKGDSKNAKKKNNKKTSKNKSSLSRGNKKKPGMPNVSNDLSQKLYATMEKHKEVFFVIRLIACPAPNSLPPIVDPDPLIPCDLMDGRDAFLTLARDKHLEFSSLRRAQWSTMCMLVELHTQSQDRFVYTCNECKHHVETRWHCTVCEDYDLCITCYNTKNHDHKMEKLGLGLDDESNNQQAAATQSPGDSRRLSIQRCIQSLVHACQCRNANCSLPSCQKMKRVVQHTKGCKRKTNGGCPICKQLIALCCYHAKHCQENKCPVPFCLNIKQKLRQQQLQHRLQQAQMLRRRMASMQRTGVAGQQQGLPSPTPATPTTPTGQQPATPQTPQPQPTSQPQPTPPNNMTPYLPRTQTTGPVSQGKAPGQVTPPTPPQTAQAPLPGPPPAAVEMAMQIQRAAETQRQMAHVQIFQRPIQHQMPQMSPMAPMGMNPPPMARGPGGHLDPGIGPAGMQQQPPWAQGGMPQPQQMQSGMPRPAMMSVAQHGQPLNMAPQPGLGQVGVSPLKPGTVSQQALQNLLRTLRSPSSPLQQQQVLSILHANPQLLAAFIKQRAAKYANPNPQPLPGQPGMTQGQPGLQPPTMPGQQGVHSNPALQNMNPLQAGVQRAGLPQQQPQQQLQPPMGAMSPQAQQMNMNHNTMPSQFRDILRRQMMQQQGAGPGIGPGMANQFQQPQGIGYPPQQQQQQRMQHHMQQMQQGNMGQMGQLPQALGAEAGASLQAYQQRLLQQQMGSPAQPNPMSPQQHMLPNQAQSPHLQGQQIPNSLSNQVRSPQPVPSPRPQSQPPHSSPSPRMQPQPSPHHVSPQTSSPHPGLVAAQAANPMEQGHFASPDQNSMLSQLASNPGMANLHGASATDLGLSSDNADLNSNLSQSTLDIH", "assay": "Immunohistochemistry (IHC) staining of liver from MTD study, EP300", "assay_type": "in vivo", "details": "normal mice, 40 mpk, 14-day treatment", "excerpt": "(§4) Immunohistochemistry (IHC) staining was used to examine a liver from MTD study. […] No changes in CBP and H3K27Ac levels were observed."}, "CBP [5]": {"biological_target": "T3, CBP (Mus musculus, UniProt P45481)", "T3 construct": "from tissue; host or cells: mouse liver (CD1 mice)", "assay": "Immunohistochemistry (IHC) staining of liver from MTD study, CBP", "assay_type": "in vivo", "details": "normal mice, 40 mpk, 14-day treatment", "excerpt": "as §4"}, "CBP [6]": {"biological_target": "T1, CBP", "assay": "Cellular degradation assay (immunoblot) in Kelly NB cells, CBP", "assay_type": "cell-based", "procedure": "Kelly Neuroblastoma cells were seeded at 1,000,000 cells per well in 6 well plates and were treated in a dose-dependent manner for 24 to 72 hours. Whole cell lysates were collected using ice cold lysis buffer [300 mM NaCl, 50 mM Tris-HCl, pH 7.5, 0.5% Triton X-100, 1% SDS, 1 mM dithiothreitol (DTT), Roche® protease inhibitor cocktail (1:000), 25 units/mL Benzonase] and blotted at a protein concentration of 20 μg. Histone extraction was performed using the EpiQuik™ Total Histone Extraction Kit (OP-0006-100, Epigentek) and blotted at a protein concentration of 4 μg.\nWhole cell lysates were resolved in NuPAGE® 3-8% Tris-Acetate polyacrylamide gels (EA03785BOX, Invitrogen™) and histone extraction lysates in Bolt 4-12% Bis-Tris polyacrylamide gels (NWO4125BOX, Invitrogen™). Afterwards, gels were transferred to nitrocellulose membranes (LC2001, Invitrogen™). […]\nThe experimental protocol is the same as in Example 24. The protein level was determined by immunoblot using EP300 antibody, CBP antibody or H3K27ac antibody. […]"}, "U266 cells": {"tested_on": "U266 cells", "assay": "6-day MTT assay, U266 cells", "assay_type": "cell-based", "details": "0-10 μM", "procedure": "as §2, §3"}}}
{"smiles": "C[C@H](N(Cc1ccc(F)cc1)C(=O)CN1C(=O)O[C@@]2(CCc3cc(NC(=O)CCCCCCCCCCCNc4ccc5c(c4)C(=O)N(C4CCC(=O)NC4=O)C5=O)ccc32)C1=O)C(F)(F)F", "note": "(stereo partly drawn) [CPD 1, 12-((2-(2,6-dioxopiperidin-3-yl)-1,3-dioxoisoindolin-5-yl)amino)-N—((R)-3′-(2-((4-fluorobenzyl)((S)-1,1,1-trifluoropropan-2-yl)amino)-2-oxoethyl)-2′,4′-dioxo-2,3-dihydrospiro[indene-1,5′-oxazolidin]-5-yl)dodecanamide]", "values": [{"measurement": "growth inhibition compared with A485", "setting": "MM.1S cells [1]", "value": "outperformed inhibitor A485"}, {"measurement": "CBP degradation in CRBN k/o lines", "setting": "CBP [2]", "value": "did not degrade"}, {"measurement": "growth inhibition compared with A485", "setting": "MM.1S cells [3]", "value": "outperformed inhibitor A485"}, {"measurement": "cell growth inhibition in CRBN k/o cell lines", "setting": "CRBN k/o cell lines", "value": "did not affect CRBN k/o cell lines"}, {"measurement": "ALP", "setting": "[4]; 40 mg/kg IP daily", "value": 51, "unit": "U/L"}, {"measurement": "ALT", "setting": "[4]; 40 mg/kg IP daily", "value": 54, "unit": "U/L"}, {"measurement": "AST", "setting": "[4]; 40 mg/kg IP daily", "value": 37, "unit": "U/L"}, {"measurement": "Albumin", "setting": "[4]; 40 mg/kg IP daily", "value": 3.2, "unit": "g/dL"}, {"measurement": "Basophils", "setting": "[4]; 40 mg/kg IP daily", "value": 0.02, "unit": "K/μL"}, {"measurement": "Creatinine", "setting": "[4]; 40 mg/kg IP daily", "value": 0.17, "unit": "mg/dL"}, {"measurement": "Eosinophils", "setting": "[4]; 40 mg/kg IP daily", "value": 0.10, "unit": "K/μL"}, {"measurement": "GGTP", "setting": "[4]; 40 mg/kg IP daily", "value": 5}, {"measurement": "Hematocrit", "setting": "[4]; 40 mg/kg IP daily", "value": 41.2, "unit": "%"}, {"measurement": "Hemoglobin", "setting": "[4]; 40 mg/kg IP daily", "value": 13.35, "unit": "g/dL"}, {"measurement": "Lymphocytes", "setting": "[4]; 40 mg/kg IP daily", "value": 1.80, "unit": "K/μL"}, {"measurement": "Monocytes", "setting": "[4]; 40 mg/kg IP daily", "value": 0.35, "unit": "K/μL"}, {"measurement": "Neutrophils", "setting": "[4]; 40 mg/kg IP daily", "value": 1.2, "unit": "K/μL"}, {"measurement": "Platelet", "setting": "[4]; 40 mg/kg IP daily", "value": 528, "unit": "K/μL"}, {"measurement": "WBC", "setting": "[4]; 40 mg/kg IP daily", "value": 3.46, "unit": "K/μL"}, {"measurement": "toxicity by blood sample measurements", "setting": "[4]; 40 mpk IP daily", "value": "not toxic"}, {"measurement": "tumor growth inhibition", "setting": "NB zebra fish model; NB zebra fish model, 0.25 μM and 0.5 μM", "value": "tumor growth inhibition"}, {"measurement": "toxicity in zebra fish study", "setting": "NB zebra fish model; zebra fish", "value": "No toxicity was observed"}, {"measurement": "EP300 (P300) level in liver tissue", "setting": "EP300", "value": "A drop in P300 levels was observed"}, {"measurement": "CBP level in liver tissue", "setting": "CBP [5]", "value": "No changes"}, {"measurement": "CBP degradation", "setting": "CBP [6]; after 48 hour", "value": "degradation of CBP was observed"}, {"measurement": "CBP level", "setting": "CBP [6]; first 36 hours", "value": "without affecting the CBP level"}, {"measurement": "growth inhibition compared with A485", "setting": "U266 cells", "value": "outperformed inhibitor A485"}]}
